Test [1] addresses Epidermal growth factor receptor (Homo sapiens) (UniProt P00533). Description: Inhibition of EGFR (unknown origin) at 10 uM preincubated for 0.5 hrs followed by substrate addition and measured after 1 hr by ADP-Glo assay relative to control. The following applies: time 1.5 hrs.
The subject of test [2] is DU-145. Description: cells. The following applies: Homo sapiens, DU-145, 48 h; pooled result: one value given for 6 cell lines, strains, targets or settings. The test is classed as functional, cell-based.
Test [3] addresses Histone deacetylase. Description: Inhibition of human HDAC extracted from human HeLa cell nuclear extract incubated for 30 mins by fluorometric analysis. The class given is subcellular, Nucleus.
Test [4] has as its system HPAC. Description: Antiproliferative activity against human HPAC cells assessed as inhibition of cell growth measured after 72 hrs by MTT assay. The test is classed as functional, cell-based.
Test [5] concerns CWR22R. In words: Antiproliferative activity against human 22Rv1 cells assessed as inhibition of cell growth measured after 72 hrs by SRB assay. The test is classed as functional, cell-based. The conditions noted are these: 22Rv1, 72 h.
Test [6] deals with LAPC4. In words: Antiproliferative activity against human LAPC4 cells assessed as inhibition of cell growth measured after 72 hrs by SRB assay. The class given is functional, cell-based. The following applies: LAPC4, 72 h.
The test system of test [7] is DU-145. Description: Antiproliferative activity against human DU-145 cells assessed as inhibition of cell growth measured after 72 hrs by SRB assay. The test is classed as functional, cell-based. The conditions noted are these: DU-145, 72 h.
Test [8] relates to MIA PaCa-2. Description: Antiproliferative activity against human MIA PaCa-2 cells assessed as inhibition of cell growth measured after 72 hrs by MTT assay. The test is classed as functional, cell-based. The conditions noted are these: MIA PaCa-2, 72 h.
For test [9], the system named is LNCaP C4-2. In words: Antiproliferative activity against human C4-2 cells assessed as inhibition of cell growth measured after 72 hrs by SRB assay. The test is classed as functional, cell-based. The following applies: LNCaP C4-2, 72 h.
The subject of test [10] is BXPC-3. Description: Antitumor activity against human BXPC-3 cells xenografted in female BALB/c nude mouse assessed as tumor inhibition rate by measuring T/C ratio at 10 mg/kg, ip administered for 20 days and measured every 1 to 3 days relative to control. The class given is functional. The conditions noted are these: time 20 day.
Test [11] relates to KYSE-450. In words: Antiproliferative activity against human KYSE-450 cells assessed as inhibition of cell growth measured after 72 hrs by CCK-8 assay. The test is classed as functional, cell-based. The conditions noted are these: KYSE-450, 72 h.
Test [12] relates to KYSE-150 cell line. Description: Antiproliferative activity against human KYSE-150 cells assessed as inhibition of cell growth measured after 72 hrs by CCK-8 assay. The class given is functional, cell-based. The conditions noted are these: KYSE-150, 72 h.
In test [13] the test system is ASPC1. In words: Antiproliferative activity against human ASPC1 cells assessed as inhibition of cell growth measured after 72 hrs by MTT assay. The test is classed as functional, cell-based. The conditions noted are these: ASPC1, 72 h.
Test [14] is described as follows: Antitumor activity against human Castration-resistant LuCaP 35CR cells xenografted in male CB17 SCID mouse assessed as inhibition of tumor growth at 100 mg/kg, po administered via oral gavage measured after 19 days relative to control. The test is classed as functional. The conditions noted are these: 456 h, time 19 day.
Test [15] has as its system KYSE-450. Description: Antitumor activity against human KYSE-450 cells xenografted in male C57BL/6 nude mouse assessed as reduction in tumor growth at 200 mg/kg, po administered for 5 days followed by 2 off schedule and measured every third day for 31 days relative to control. The test is classed as functional. Also noted: scale not given: the % may be the effect or the level left. The conditions noted are these: time 31 day.

Test [16] relates to BXPC-3. In words: Antiproliferative activity against human BXPC-3 cells assessed as inhibition of cell growth measured after 72 hrs by MTT assay. The class given is functional, cell-based. The conditions noted are these: BXPC-3, 72 h.
Test [17] deals with KYSE-510. In words: Antiproliferative activity against human KYSE-510 cells assessed as inhibition of cell growth measured after 72 hrs by CCK-8 assay. The conditions noted are these: KYSE-510, 72 h. The class given is functional, cell-based.
Test [18] deals with PC-3. Description: Antiproliferative activity against human PC-3 cells assessed as inhibition of cell growth measured after 72 hrs by SRB assay. The class given is functional, cell-based. The following applies: PC-3, 72 h.
The test system of test [19] is LNCaP. Description: Antiproliferative activity against human LNCaP cells assessed as inhibition of cell growth measured after 72 hrs by SRB assay. The test is classed as functional, cell-based.
Test [20] concerns PANC-1. Description: Antiproliferative activity against human PANC-1 cells assessed as inhibition of cell growth measured after 72 hrs by MTT assay. The following applies: PANC-1, 72 h. The class given is functional, cell-based.
The test system of test [21] is A549. Description: Antitumor activity against human A549 cells xenografted in assessed as reduction in tumor growth at 50 mg/kg, po administered via oral gavage 5 days on/2 days off dosing and measured on day 10,25 and 31 relative to control. The class given is functional. On the set-up: scale not given: the % may be the effect or the level left. The conditions noted are these: time 31 day.

For test [22], the system named is LNCaP C4-2B. Description: Antiproliferative activity against human LNCaP C4-2B cells assessed as inhibition of cell growth measured after 72 hrs by SRB assay. The test is classed as functional, cell-based.
Test [23] has as its system CFPAC-1. Description: Antiproliferative activity against human CFPAC-1 cells assessed as inhibition of cell growth measured after 72 hrs by MTT assay. The following applies: CFPAC-1, 72 h. The class given is functional, cell-based.
Test [24] relates to KYSE-30. Description: Antiproliferative activity against human KYSE-30 cells assessed as inhibition of cell growth measured after 72 hrs by CCK-8 assay. The class given is functional, cell-based. The following applies: KYSE-30, 72 h.
Test [25] deals with HCT-116. In words: cells. The conditions noted are these: Homo sapiens.
Description: Antiproliferative activity against human HCT-116 cells
In test [26] the target is T1, Protein deacetylase HDAC6 (Homo sapiens, UniProt Q9UBN7).
T1 sequence (Q9UBN7 whole entry): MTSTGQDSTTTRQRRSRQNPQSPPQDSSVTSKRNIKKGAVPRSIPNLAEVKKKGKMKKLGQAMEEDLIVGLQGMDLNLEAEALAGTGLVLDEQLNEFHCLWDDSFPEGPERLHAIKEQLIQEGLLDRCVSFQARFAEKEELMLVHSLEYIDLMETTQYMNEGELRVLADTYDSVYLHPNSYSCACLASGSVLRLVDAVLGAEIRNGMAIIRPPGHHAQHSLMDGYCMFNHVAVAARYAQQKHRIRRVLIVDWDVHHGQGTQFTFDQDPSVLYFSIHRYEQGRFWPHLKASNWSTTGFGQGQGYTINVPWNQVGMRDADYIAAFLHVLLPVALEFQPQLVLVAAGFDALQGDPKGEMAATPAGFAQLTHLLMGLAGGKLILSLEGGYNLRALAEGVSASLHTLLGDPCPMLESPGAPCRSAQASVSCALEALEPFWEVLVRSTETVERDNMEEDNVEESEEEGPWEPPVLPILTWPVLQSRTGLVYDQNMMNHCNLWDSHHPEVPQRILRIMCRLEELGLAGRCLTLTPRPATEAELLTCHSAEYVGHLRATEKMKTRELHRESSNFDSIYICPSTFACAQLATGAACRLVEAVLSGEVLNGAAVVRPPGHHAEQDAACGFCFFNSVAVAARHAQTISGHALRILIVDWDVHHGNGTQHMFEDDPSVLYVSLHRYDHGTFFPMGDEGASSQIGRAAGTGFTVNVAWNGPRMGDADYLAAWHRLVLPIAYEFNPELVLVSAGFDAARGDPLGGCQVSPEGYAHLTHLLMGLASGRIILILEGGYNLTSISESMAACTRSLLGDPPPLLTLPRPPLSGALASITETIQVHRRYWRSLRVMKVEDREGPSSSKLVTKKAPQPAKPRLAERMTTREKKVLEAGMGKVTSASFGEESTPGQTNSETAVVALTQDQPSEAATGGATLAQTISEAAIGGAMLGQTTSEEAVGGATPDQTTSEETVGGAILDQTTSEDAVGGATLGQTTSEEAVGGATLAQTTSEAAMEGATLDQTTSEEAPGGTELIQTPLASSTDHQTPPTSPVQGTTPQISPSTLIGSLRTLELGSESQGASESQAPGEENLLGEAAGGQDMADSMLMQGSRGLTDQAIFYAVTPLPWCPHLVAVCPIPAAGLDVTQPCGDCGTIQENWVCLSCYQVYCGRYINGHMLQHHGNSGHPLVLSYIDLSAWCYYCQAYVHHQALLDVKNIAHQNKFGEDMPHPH
Description: Inhibition of HDAC6 (unknown origin).

Test [27] addresses Serine/threonine-protein kinase B-raf (Homo sapiens, UniProt P15056). In words: Inhibition of wild type BRAF (unknown origin).
The target of test [28] is Serine/threonine-protein kinase B-raf (Homo sapiens, UniProt P15056, V600E). In words: Inhibition of BRAF V600E mutant (unknown origin).
Test [29] deals with K562. In words: Antiproliferative activity against human K562 cells measured after 72 hrs by CCK-8 assay. The test is classed as functional, cell-based. The conditions noted are these: K562, 72 h.
The subject of test [30] is U-266. Description: Antiproliferative activity against human U-266 cells measured after 72 hrs by CCK-8 assay. The test is classed as functional, cell-based. The conditions noted are these: U-266, 72 h, pooled result: one value given for 9 cell lines, strains, targets or settings.

Sequence of Epidermal growth factor receptor (Homo sapiens) (P00533 whole entry): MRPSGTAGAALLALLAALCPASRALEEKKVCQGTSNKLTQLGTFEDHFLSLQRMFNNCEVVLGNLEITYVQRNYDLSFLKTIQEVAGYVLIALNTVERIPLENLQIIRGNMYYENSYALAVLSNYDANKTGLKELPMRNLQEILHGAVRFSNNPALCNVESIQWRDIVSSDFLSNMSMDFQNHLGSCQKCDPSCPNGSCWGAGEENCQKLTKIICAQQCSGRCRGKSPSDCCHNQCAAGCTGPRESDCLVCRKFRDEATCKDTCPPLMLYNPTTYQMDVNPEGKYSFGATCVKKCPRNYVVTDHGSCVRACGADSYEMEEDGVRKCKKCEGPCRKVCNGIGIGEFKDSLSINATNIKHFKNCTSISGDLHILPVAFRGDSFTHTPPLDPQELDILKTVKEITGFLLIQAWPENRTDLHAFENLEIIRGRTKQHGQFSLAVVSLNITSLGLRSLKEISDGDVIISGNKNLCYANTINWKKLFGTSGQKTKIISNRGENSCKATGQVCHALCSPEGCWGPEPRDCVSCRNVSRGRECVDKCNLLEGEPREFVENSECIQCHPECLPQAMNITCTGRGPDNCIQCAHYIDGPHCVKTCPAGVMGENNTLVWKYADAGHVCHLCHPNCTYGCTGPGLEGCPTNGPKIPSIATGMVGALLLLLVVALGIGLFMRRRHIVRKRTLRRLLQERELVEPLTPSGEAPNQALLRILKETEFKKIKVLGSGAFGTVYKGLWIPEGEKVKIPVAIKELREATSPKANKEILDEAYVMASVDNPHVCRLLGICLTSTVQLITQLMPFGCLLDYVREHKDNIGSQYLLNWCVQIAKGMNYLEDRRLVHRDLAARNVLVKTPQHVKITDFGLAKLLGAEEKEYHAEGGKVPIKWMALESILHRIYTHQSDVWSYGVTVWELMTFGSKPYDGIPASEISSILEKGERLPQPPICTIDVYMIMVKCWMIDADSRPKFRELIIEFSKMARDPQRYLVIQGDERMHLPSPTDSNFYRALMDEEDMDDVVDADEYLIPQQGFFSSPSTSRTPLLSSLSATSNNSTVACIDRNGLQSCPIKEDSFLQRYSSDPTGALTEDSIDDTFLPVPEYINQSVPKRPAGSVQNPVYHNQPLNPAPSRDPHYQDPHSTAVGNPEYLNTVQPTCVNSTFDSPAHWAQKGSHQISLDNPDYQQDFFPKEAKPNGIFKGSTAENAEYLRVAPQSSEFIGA
Sequence of Serine/threonine-protein kinase B-raf (Homo sapiens, UniProt P15056) (P15056 whole entry): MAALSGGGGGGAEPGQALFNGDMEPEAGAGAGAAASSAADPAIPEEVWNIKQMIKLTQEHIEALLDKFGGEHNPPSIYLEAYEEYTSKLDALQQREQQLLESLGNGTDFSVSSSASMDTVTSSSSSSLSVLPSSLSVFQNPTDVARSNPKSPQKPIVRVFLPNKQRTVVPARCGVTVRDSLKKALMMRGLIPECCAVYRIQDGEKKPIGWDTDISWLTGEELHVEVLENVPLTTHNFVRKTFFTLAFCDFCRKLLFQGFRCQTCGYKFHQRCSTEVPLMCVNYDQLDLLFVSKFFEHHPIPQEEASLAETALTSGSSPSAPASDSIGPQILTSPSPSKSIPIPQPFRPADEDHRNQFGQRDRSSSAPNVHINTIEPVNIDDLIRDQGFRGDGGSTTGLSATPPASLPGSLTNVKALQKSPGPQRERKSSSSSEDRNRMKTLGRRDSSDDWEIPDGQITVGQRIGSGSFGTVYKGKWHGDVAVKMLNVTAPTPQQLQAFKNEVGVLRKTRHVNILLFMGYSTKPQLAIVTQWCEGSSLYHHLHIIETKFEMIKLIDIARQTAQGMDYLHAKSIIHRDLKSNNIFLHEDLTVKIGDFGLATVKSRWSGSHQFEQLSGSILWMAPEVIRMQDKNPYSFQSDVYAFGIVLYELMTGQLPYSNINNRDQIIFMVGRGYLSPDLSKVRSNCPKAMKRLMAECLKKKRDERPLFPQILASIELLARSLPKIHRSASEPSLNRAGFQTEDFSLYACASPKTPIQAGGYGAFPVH
Sequence of Serine/threonine-protein kinase B-raf (Homo sapiens, UniProt P15056, V600E) (P15056 2-766 V600E limits assumed): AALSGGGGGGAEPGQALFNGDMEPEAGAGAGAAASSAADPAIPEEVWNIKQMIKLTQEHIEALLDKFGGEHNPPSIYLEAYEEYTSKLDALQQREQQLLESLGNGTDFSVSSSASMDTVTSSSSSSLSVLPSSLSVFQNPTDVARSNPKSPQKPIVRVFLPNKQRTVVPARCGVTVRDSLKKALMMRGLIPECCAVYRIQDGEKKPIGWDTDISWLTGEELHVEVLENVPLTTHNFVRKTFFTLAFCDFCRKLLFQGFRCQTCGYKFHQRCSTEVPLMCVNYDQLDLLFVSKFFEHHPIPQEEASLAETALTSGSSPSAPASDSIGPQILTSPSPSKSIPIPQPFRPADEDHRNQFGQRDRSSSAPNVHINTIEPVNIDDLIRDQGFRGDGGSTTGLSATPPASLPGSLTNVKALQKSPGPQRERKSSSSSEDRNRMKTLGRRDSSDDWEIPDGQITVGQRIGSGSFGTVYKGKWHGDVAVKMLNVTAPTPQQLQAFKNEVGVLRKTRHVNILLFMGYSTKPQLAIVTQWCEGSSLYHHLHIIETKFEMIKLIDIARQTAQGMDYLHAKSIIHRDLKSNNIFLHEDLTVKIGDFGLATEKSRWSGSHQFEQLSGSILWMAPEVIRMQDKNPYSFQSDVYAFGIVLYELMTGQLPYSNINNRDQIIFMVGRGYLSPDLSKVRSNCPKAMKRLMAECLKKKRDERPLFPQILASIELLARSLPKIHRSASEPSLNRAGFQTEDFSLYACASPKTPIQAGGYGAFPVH

In [1], `O=C(CCCCCCC(=O)Nc1ccc2ncnc(Nc3cccc(Cl)c3)c2c1)NO` registered an inhibition of 75%. Also, the figures for the IC50 in test [2] and in [3] were 1180 nM and 474 nM, respectively.
For `COc1ccc(-c2nc(N3CCOCC3)c3sc(CN(C)c4ncc(C(=O)NO)cn4)cc3n2)cn1` [FIMEPINOSTAT], the IC50 in [4], in test [5], in [6], in [7], in test [8] and in [9] was 2 nM each time. Moreover, the IC50 in test [11], in [12], in test [13], in test [16], in test [17] and in test [18] was 2 nM throughout. The IC50 in test [19], in test [20], in [22], in test [23] and in [24] was 2 nM each time. The T/C in test [10] is reported as 52%. The inhibition in vivo at 100 mg/kg in [14] was around 60%. The Activity in test [15] is listed as around 65%; in [21], around 80%.
Consider `O=C(CCCCCCNc1nccc(-c2sc(-c3ccccc3)nc2-c2cccc(NS(=O)(=O)c3c(F)cccc3F)c2F)n1)NO`, for which the IC50 turned out to be 310 nM in [25], 15.6 nM in test [26], 1.71 nM in test [27] and 1.71 nM in [28].
With `O=C(NO)c1ccc(N2CCN(C(=O)c3cc(-c4ccc(-c5ccccc5)cc4)nc4ccccc34)CC2)cc1`, the IC50 in [29] and in [30] was 1080 nM throughout.

Source of the values: ChEMBL document CHEMBL5614367, “Hydroxamic acid hybrids: Histone deacetylase inhibitors with anticancer therapeutic potency” (Eur J Med Chem, 2023).
